One may read the IC50 as the concentration that inhibits the measured activity by half.

Molecules are shown by their SMILES. Where a SMILES comes first, the peptide text is derived from it. [ ]: non-standard residue; d: D form. Trp(7-aza) = N[C@@H](Cc1c[nH]c2ncccc12)C(=O)O; NMePhe(4-F) = CN[C@@H](Cc1ccc(F)cc1)C(=O)O; Phg = N[C@H](C(=O)O)c1ccccc1; Tle = CC(C)(C)[C@H](N)C(=O)O; NMeA = CN[C@@H](C)C(=O)O; Pra = C#CC[C@H](N)C(=O)O; AEEA = NCCOCCOCC(=O)O; PEG1 = NCCOCCC(=O)O; Sar = CNCC(=O)O

From patent US10954287B2, “Ras binding peptides and methods of use” (Ra Pharmaceuticals, Inc., priority 2016, dated 2021) come the findings set out here.

The subject of the experiment is GMPPNP-loaded H-Ras or GTP-loaded K-Ras. Kind of experiment: Fluorescence polarization competition assay with TAMRA-labeled probe R4007. It counts as binding, human. To be noted: 120 nM Ras, 30 nM probe R4007, 60 minutes at room temperature; read-out: Probe displacement (nM IC50). Here is the method: R4000 was evaluated for competition with a TAMRA labeled probe (R4007) based on peptide R4000. The assay was performed in 384-well black, non-binding plates (Greiner Bio-One, Monroe, N.C.). GMPPNP-loaded H-Ras or GTP-loaded K-Ras, diluted in FP assay buffer (20 mM Tris-HCl, pH 7.5, 50 mM NaCl, 5 mM MgCl2, 1 mM EDTA, 0.002% Triton-X-100) for a final concentration of 120 nM was incubated with 30 nM R4007 for 20 minutes at room temperature. R4000 was serially diluted, added to the assay and incubated for 60 minutes at room temperature. Fluorescence polarization was detected with a SpectraMax Paradigm plate reader (Molecular Devices, Sunnyvale, Calif.) using the Rhodamine FP detection cartridge (535 nm/595 nm). Data was analyzed using GraphPad Prism and Ki determined using One Site Ki Curve fitting model.
Peptides were evaluated for competition with R4007, a probe consisting of TAMRA-labeled R4000, using a fluorescence polarization (FP) competition assay. The assay was performed in 384-well black, non-binding plates (Greiner Bio-One, Monroe, N.C.). GMPPNP-loaded H-Ras or GTP- loaded K-Ras, diluted in FP assay buffer (20 mM Tris-HCl, pH 7.5, 50 mM NaCl, 5 mM MgCl2, 1 mM EDTA, 0.002% Triton-X-100) for a final concentration of 120 nM was incubated with 30 nM probe for 20 minutes at room temperature. Peptides were serially diluted, added to the assay and incubated for 60 minutes at room temperature. Fluorescence was detected with a SpectraMax Paradigm plate reader (Molecular Devices, Sunnyvale, Calif.) using the Rhodamine FP detection cartridge (535 nm/595 nm). Data was analyzed and Ki determined using a One Site Ki Curve fitting model. Percent inhibition for each data point was calculated relative to the maximal binding in test compound-free control wells (showing no probe displacement) and Ras-free control wells (showing no probe binding) and the half-maximal inhibitory concentration (IC50), based on probe displacement, was determined.
For orientation: In fluorescence polarisation assays a small probe gives low polarisation when free and higher when bound to something large.

Take `CCC[C@H](NC(C)=O)C(=O)N[C@H]1CSCc2cccc(c2)CSC[C@@H](C(=O)NCC(=O)N[C@@H](CS)C(=O)N[C@@H](CCSC)C(=O)N[C@@H](CO)C(=O)N[C@@H](CS)C(=O)N[C@@H](CCCCN)C(=O)N[C@@H](CS)C(=O)N[C@H](C(=O)N[C@@H](CC(C)C)C(=O)N[C@@H](CO)C(N)=O)C(C)C)NC(=O)CN(C)C(=O)[C@H](Cc2ccc(F)cc2)N(C)C(=O)[C@H](Cc2ccc(O)cc2)NC(=O)[C@H](Cc2c[nH]c3ncccc23)NC(=O)[C@H](c2ccccc2)NC(=O)[C@H](C)N(C)C(=O)[C@H](Cc2c[nH]cn2)NC(=O)[C@H](CCCCN)NC(=O)[C@H](C(C)(C)C)NC(=O)[C@H](Cc2ccc(O)cc2)NC1=O` (relative stereo) [Compound R4116, ACE-NVA-CYS*-TYR-TBG-LYS-HIS-NMA-PHG-7AW-TYR-MFF-SAR-CYS*-GLY-CYS-MET-SER-CYS-LYS-CYS-VAL-LEU-SER-NH2]: the IC50 amounted to 35.7 nM.
As to `CCC[C@H](NC(C)=O)C(=O)N[C@H]1CSCc2cccc(c2)CSC[C@@H](C(=O)NCC(=O)NCC(=O)NCC(=O)N[C@@H](CS)C(=O)N[C@H](C(=O)N[C@H](C(=O)N[C@@H](CCSC)C(N)=O)[C@@H](C)CC)C(C)C)NC(=O)CN(C)C(=O)[C@H](Cc2ccc(F)cc2)N(C)C(=O)[C@H](Cc2ccc(O)cc2)NC(=O)[C@H](Cc2c[nH]c3ncccc23)NC(=O)[C@H](c2ccccc2)NC(=O)[C@H](C)N(C)C(=O)[C@H](Cc2c[nH]cn2)NC(=O)[C@H](CCCCN)NC(=O)[C@H](C(C)(C)C)NC(=O)[C@H](Cc2ccc(O)cc2)NC1=O` (relative stereo) [Compound R4127, ACE-NVA-CYS*-TYR-TBG-LYS-HIS-NMA-PHG-7AW-TYR-MFF-SAR-CYS*-GLY-GLY-GLY-CYS-VAL-ILE-MET-NH2], the IC50 worked out at 148 nM.
Take `C=CC(=O)NCCCC[C@@H]1NC(=O)[C@H](C)NC(=O)[C@H](C(C)(C)C)NC(=O)[C@H](Cc2ccc(O)cc2)NC(=O)[C@@H](NC(=O)[C@H](CCC)NC(C)=O)CSCc2cccc(c2)CSC[C@@H](C(N)=O)NC(=O)CN(C)C(=O)[C@H](Cc2ccc(F)cc2)N(C)C(=O)[C@H](Cc2ccc(O)cc2)NC(=O)[C@H](Cc2c[nH]c3ncccc23)NC(=O)[C@H](c2ccccc2)NC(=O)[C@H](C)N(C)C1=O` (relative stereo) [Compound R4123, ACE-NVA-CYS*-TYR-TBG-ALA-KAC-NMA-PHG-7AW-TYR-MFF-SAR-CYS*-NH2]: the IC50 stood at 85 nM.
Regarding `CCC[C@H](NC(C)=O)C(=O)N[C@H]1CSCc2cccc(c2)CSC[C@@H](C(=O)N[C@H](CO)C(=O)N[C@H](C)C(=O)N[C@@H](CCCCN)C(=O)N[C@@H](CSSC(C)(C)C)C(=O)N[C@H](C(=O)N[C@H](C(=O)N[C@@H](CCSC)C(=O)O)[C@@H](C)CC)C(C)C)NC(=O)CN(C)C(=O)[C@H](Cc2ccc(F)cc2)N(C)C(=O)[C@H](Cc2ccc(O)cc2)NC(=O)[C@H](Cc2c[nH]c3ncccc23)NC(=O)[C@H](c2ccccc2)NC(=O)[C@H](C)N(C)C(=O)[C@H](Cc2c[nH]cn2)NC(=O)[C@H](CCCCN)NC(=O)[C@H](C(C)(C)C)NC(=O)[C@H](Cc2ccc(O)cc2)N(C)C1=O` (relative stereo) [Compound R4129, ACE-NVA-CYS*-NMY-TBG-LYS-HIS-NMA-PHG-7AW-TYR-MFF-SAR-CYS*-DSER-DALA-LYS-TDSPA-VAL-ILE-MET], the IC50 was found to be 227 nM.
For the compound `C#CC[C@@H]1NC(=O)CN(C)C(=O)[C@H](Cc2ccc(F)cc2)N(C)C(=O)[C@H](Cc2ccc(O)cc2)NC(=O)[C@H](Cc2c[nH]c3ncccc23)NC(=O)[C@H](c2ccccc2)NC(=O)[C@H](C)N(C)C(=O)[C@H](Cc2c[nH]cn2)NC(=O)[C@H](CCCCN)NC(=O)[C@H](C(C)(C)C)NC(=O)[C@H](Cc2ccc(O)cc2)NC(=O)CCOCCNC1=O` [Compound R4139, AEP*-TYR-TBG-LYS-HIS-NMA-PHG-7AW-TYR-MFF-SAR-PRG*] (cyclo([PEG1]Y[Tle]KH[NMeA][Phg][Trp(7-aza)]Y[NMePhe(4-F)][Sar][Pra])), the IC50 came out at 522 nM.
Under `CCC[C@H](NC(C)=O)C(=O)N[C@H]1CSCc2cccc(c2)CSC[C@@H](C(N)=O)NC(=O)CN(C)C(=O)[C@H](Cc2ccc(F)cc2)N(C)C(=O)[C@H](Cc2ccc(O)cc2)NC(=O)[C@H](Cc2c[nH]c3ncccc23)NC(=O)[C@H](c2ccccc2)NC(=O)[C@H](C)N(C)C(=O)[C@H]2CCCN2C(=O)[C@H](CCCCN)NC(=O)[C@H](C(C)(C)C)NC(=O)[C@H](Cc2ccc(O)cc2)NC1=O` (relative stereo) [Compound R4144, ACE-NVA-CYS*-TYR-TBG-LYS-DPRO-NMA-PHG-7AW-TYR-MFF-SAR-CYS*-NH2] stands 1960 nM; under `CCC[C@H](NC(C)=O)C(=O)N[C@H]1CSCc2cccc(c2)CSC[C@@H](C(=O)N[C@H](CO)C(=O)N[C@@H](CCCCN)C(=O)NCC(=O)N[C@@H](CSSC(C)(C)C)C(=O)N[C@H](C(=O)N[C@H](C(=O)N[C@@H](CCSC)C(=O)O)[C@@H](C)CC)C(C)C)NC(=O)CN(C)C(=O)[C@H](Cc2ccc(F)cc2)N(C)C(=O)[C@H](Cc2ccc(O)cc2)NC(=O)[C@H](Cc2c[nH]c3ncccc23)NC(=O)[C@H](c2ccccc2)NC(=O)[C@H](C)N(C)C(=O)[C@H](Cc2c[nH]cn2)NC(=O)[C@H](CCCCN)NC(=O)[C@H](C(C)(C)C)NC(=O)[C@H](Cc2ccc(O)cc2)NC1=O` (relative stereo) [Compound R4109, ACE-NVA-CYS*-TYR-TBG-LYS-HIS-NMA-PHG-7AW-TYR-MFF-SAR-CYS*-DSER-LYS-GLY-TDSPA-VAL-ILE-MET], 14.2 nM; under `C#CC[C@@H]1NC(=O)CN(C)C(=O)[C@H](Cc2ccc(F)cc2)N(C)C(=O)[C@H](Cc2ccc(O)cc2)NC(=O)[C@H](Cc2c[nH]c3ncccc23)NC(=O)[C@H](c2ccccc2)NC(=O)[C@H](C)N(C)C(=O)[C@H](Cc2c[nH]cn2)NC(=O)[C@H](CCCCN)NC(=O)[C@H](C(C)(C)C)NC(=O)[C@H](Cc2ccc(O)cc2)NC(=O)COCCOCCNC1=O` [Compound R4130, PEG1*-TYR-TBG-LYS-HIS-NMA-PHG-7AW-TYR-MFF-SAR-PRG*] (cyclo([AEEA]Y[Tle]KH[NMeA][Phg][Trp(7-aza)]Y[NMePhe(4-F)][Sar][Pra])), 268 nM.
Under `CCC[C@H](N)C(=O)N[C@H]1CSCc2cccc(c2)CSC[C@@H](C(=O)N[C@H](CO)C(=O)N[C@@H](CCCCN)C(=O)NCC(=O)N[C@@H](CSSC(C)(C)C)C(=O)N[C@H](C(=O)N[C@H](C(=O)N[C@@H](CCSC)C(=O)O)[C@@H](C)CC)C(C)C)NC(=O)CN(C)C(=O)[C@H](Cc2ccc(F)cc2)N(C)C(=O)[C@H](Cc2ccc(O)cc2)NC(=O)[C@H](Cc2c[nH]c3ncccc23)NC(=O)[C@H](c2ccccc2)NC(=O)[C@H](C)N(C)C(=O)[C@H](Cc2c[nH]cn2)NC(=O)[C@H](CCCCN)NC(=O)[C@H](C(C)(C)C)NC(=O)[C@H](Cc2ccc(O)cc2)NC1=O` (relative stereo) [Compound R4113, NVA-CYS*-TYR-TBG-LYS-HIS-NMA-PHG-7AW-TYR-MFF-SAR-CYS*-DSER-LYS-GLY-TDSPA-VAL-ILE-MET] stands 32.7 nM; under `CCC[C@H](NC(=O)CCCCCCNC(=O)[C@H](CC(C)C)NC(=O)[C@@H](O)[C@H](N)Cc1ccccc1)C(=O)N[C@H]1CSCc2cccc(c2)CSC[C@@H](C(N)=O)NC(=O)CN(C)C(=O)[C@H](Cc2ccc(F)cc2)N(C)C(=O)[C@H](Cc2ccc(O)cc2)NC(=O)[C@H](Cc2c[nH]c3ncccc23)NC(=O)[C@H](c2ccccc2)NC(=O)[C@H](C)N(C)C(=O)[C@H](Cc2c[nH]cn2)NC(=O)[C@H](CCCCN)NC(=O)[C@H](C(C)(C)C)NC(=O)[C@H](Cc2ccc(O)cc2)NC1=O` (relative stereo) [Compound R4106, UBX-AHPA-NVA-CYS*-TYR-TBG-LYS-HIS-NMA-PHG-7AW-TYR-MFF-SAR-CYS*-NH2], 8.38 nM.
